Molecules are shown by their SMILES. Where only a bound is given, the exact number is not on record here.

Usually IC50 stands for the concentration that gives 50% inhibition.

The target of one test is PI3Kα (Homo sapiens (Human), UniProt P42336). Kind of test: Inhibition of PI3Kα (ADP-Glo kinase activity assay, ATP to ADP conversion). Type of test: biochemical. Particulars: 25 μM PIP2:PS, 60 μM ATP, 30 min reaction, luminescence. The method, boiled down: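 Recombinant active PI3Kα (1.1 nM) in HEPES pH 7.5 buffer with 6 mM MgCl2 and 8 mM DTT was preincubated with compound for 0 or 3 h. The reaction ran for 30 min with 25 µM PIP2:PS and 60 µM ATP, and ADP formation was read by ADP-Glo luminescence. IC50 came from a 12-point, 1:3 series fitted with a 4-parameter model, bottom fixed to reference inhibitor controls and top floating.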

Test [1] deals with (Ser-473) pAKT in B103 (Rat Neuroblastoma) cells. Briefly: pAKT protocol: loss of (Ser-473) pAKT by AlphaScreen in insulin-stimulated B103 cells. It counts as cell-based. To be noted: (Ser-473) pAKT/total AKT IC50, 2-hour pretreatment, 2.5 μg/mL insulin 20 minutes. In a few lines:
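Rat neuroblastoma B103 cells, serum-starved 6 h, were pretreated 2 h with inhibitors (6-point 1:3 series, 0.5% DMSO) before insulin stimulation. Lysate Ser-473 pAKT and total AKT measured by AlphaScreen; pAKT/total AKT ratio fitted to 4-parameter curve, bottom constrained to reference control, top anchored to DMSO.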
In general terms: In Alpha technology, singlet oxygen from a donor bead excites a nearby acceptor bead.

The target of the next test is mTor kinase (Homo sapiens (Human), UniProt P42345). Kind of test: mTor assay (33P-ATP filter-binding kinase assay). It counts as biochemical. To be noted: 2 hours at room temperature. Here is the method: The substrate was prepared in base reaction buffer (20 mM Hepes (pH 7.5), 10 mM MgCl2, 1 mM EGTA, 0.02% Brij35, 0.02 mg/ml BSA, 0.1 mM Na3VO4, 2 mM DTT, 1% DMSO), and required cofactors were added to the substrate solution. The mTor kinase was delivered into the substrate solution, and the solution was gently mixed. Testing compounds were dissolved in 100% DMSO to specific concentration. The serial dilution was conducted by Integra Viaflo Assist in DMSO. The compounds were delivered into the kinase reaction mixture by Acoustic technology (Echo550; nanoliter range), and the reaction mixture was incubated for 20 min at room temperature. Then, 33P-ATP (Specific activity 10 μCi/μl) was delivered into the reaction mixture to initiate the reaction. The reaction mixture was incubated for 2 hours at room temperature. Radioactivity was detected by a filter-binding method. Kinase activity data were expressed as the percent remaining kinase activity in test samples compared to vehicle (dimethyl sulfoxide) reactions. IC50 values and curve fits were obtained using Prism (GraphPad Software).

Chain of PI3Kα (P42336 whole entry): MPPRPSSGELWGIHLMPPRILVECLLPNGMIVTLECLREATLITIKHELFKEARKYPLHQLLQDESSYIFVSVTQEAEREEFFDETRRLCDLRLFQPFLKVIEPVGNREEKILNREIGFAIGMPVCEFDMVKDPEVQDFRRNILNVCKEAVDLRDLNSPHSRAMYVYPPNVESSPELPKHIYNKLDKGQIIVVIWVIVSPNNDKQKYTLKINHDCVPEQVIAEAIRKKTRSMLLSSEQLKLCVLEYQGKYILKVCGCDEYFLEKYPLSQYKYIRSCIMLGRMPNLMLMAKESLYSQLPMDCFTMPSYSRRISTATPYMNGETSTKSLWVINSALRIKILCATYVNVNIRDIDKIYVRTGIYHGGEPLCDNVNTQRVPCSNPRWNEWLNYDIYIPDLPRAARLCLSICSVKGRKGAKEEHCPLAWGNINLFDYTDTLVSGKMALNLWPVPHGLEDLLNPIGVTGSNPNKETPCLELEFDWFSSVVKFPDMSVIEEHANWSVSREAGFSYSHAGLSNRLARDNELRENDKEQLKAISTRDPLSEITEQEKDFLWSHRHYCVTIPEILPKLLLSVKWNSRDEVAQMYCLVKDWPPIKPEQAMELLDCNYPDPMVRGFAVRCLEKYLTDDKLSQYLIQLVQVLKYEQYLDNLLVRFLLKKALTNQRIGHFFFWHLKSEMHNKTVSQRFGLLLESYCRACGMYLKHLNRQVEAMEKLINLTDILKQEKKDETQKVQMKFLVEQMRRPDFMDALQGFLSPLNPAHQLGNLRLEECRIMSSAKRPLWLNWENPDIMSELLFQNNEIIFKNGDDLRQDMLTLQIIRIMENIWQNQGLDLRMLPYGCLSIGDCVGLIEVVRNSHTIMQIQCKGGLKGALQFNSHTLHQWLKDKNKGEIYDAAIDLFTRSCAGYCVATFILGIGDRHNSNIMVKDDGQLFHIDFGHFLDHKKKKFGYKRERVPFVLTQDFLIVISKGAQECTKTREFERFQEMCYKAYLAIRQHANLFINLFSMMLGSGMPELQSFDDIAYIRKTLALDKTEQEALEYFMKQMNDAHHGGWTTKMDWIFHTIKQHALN
Chain of PI3Kα (P27986 whole entry partner): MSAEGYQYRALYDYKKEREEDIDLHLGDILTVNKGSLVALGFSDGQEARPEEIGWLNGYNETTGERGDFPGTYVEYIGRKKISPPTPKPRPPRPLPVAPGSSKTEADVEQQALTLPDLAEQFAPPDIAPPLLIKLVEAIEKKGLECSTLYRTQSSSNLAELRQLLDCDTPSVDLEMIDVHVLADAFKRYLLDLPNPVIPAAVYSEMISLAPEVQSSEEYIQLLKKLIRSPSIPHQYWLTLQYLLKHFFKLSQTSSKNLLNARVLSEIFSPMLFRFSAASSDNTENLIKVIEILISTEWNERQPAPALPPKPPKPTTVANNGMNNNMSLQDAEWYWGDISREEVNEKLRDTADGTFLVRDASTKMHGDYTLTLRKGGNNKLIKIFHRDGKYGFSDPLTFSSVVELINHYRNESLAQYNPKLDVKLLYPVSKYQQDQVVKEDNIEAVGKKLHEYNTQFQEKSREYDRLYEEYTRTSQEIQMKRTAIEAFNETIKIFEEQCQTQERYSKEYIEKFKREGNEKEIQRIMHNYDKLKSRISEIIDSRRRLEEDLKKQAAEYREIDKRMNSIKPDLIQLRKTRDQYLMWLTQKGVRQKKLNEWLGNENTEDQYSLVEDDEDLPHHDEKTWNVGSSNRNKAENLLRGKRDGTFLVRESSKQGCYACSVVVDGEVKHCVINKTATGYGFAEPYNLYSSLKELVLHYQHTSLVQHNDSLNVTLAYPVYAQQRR

In the case of `N#Cc1cccc(S(=O)(=O)c2cc(-c3cnc(N)nc3)cc(N3CCOCC3)c2)c1` [Compound 13, 3-((3-(2-aminopyrimidin-5-yl)-5-morpholinophenyl)sulfonyl)benzonitrile], the “PI3Ka IC50” value at PI3Kα worked out at 0.91 µM. Also, the IC50 in test [1] is 28.6 µM; on mTor kinase it was 10 µM.

For the molecule `Nc1ncc(-c2cc(N3CCOCC3)cc(S(=O)(=O)C3CCOC3)c2)cn1` (stereo not drawn) [Compound 51, 5-(3-morpholino-5-((tetrahydrofuran-3-yl)sulfonyl)phenyl)pyrimidin-2-amine], at PI3Kα, the “PI3Ka IC50” value is 0.12 µM. The IC50 was 2.12 µM in test [1] and 0.46 µM on mTor kinase.

Take `Nc1ncc(-c2cc(N3CCOCC3)cc(S(=O)(=O)c3ccc(F)cc3)c2)cn1` [Compound 8, 5-(3-((4-fluorophenyl)sulfonyl)-5-morpholinophenyl)pyrimidin-2-amine]: the “PI3Ka IC50” value at PI3Kα worked out at 1.3 µM. Moreover, the IC50 in test [1] was found to be 7.62 µM; at mTor kinase it was 0.83 µM.

`N#Cc1ccc(S(=O)(=O)c2cc(-c3cnc(N)nc3)cc(N3CCOCC3)c2)cc1` [Compound 10, 4-((3-(2-aminopyrimidin-5-yl)-5-morpholinophenyl)sulfonyl)benzonitrile]: on PI3Kα, the “PI3Ka IC50” value worked out at 0.46 µM. In addition, the figures for the IC50 (in test [1]; on mTor kinase) were 30.7 µM and 0.64 µM, respectively.

Regarding `Nc1ncc(-c2cc(C(=O)c3ccccc3Cl)cc(N3CCOCC3)n2)cn1` [Compound 138, (2-(2-aminopyrimidin-5-yl)-6-morpholinopyridin-4-yl)(2-chlorophenyl)methanone], the “PI3Ka IC50” value on PI3Kα was determined as 0.014 µM. The results for the IC50 (in test [1]; on mTor kinase) were 0.19 µM and 1.1 µM, respectively.

`Nc1ncc(-c2cc(N3CCOCC3)cc(S(=O)(=O)Cc3ccc(F)cc3)c2)cn1` [Compound 29, 5-(3-((4-fluorobenzyl)sulfonyl)-5-morpholinophenyl)pyrimidin-2-amine]: the “PI3Ka IC50” value on PI3Kα stood at 0.37 µM. In addition, the IC50 (in test [1]; on mTor kinase) was 10.9 µM each time.

`Nc1ncc(-c2cc(Oc3ccccc3)cc(N3CCOCC3)n2)cn1` [Compound 120, 5-(6-morpholino-4-phenoxypyridin-2-yl)pyrimidin-2-amine]: the “PI3Ka IC50” value at PI3Kα is 0.091 µM. Besides, the IC50 in test [1] turned out to be 0.64 µM; at mTor kinase, 0.48 µM.

On to `CCNC(=O)N1CC(S(=O)(=O)c2cc(-c3cnc(N)nc3)cc(N3CCOCC3)c2)C1` [Compound 93, 3-((3-(2-aminopyrimidin-5-yl)-5-morpholinophenyl)sulfonyl)-N-ethylazetidine-1-carboxamide], for which the “PI3Ka IC50” value on PI3Kα was 0.088 µM. Moreover, the figures for the IC50 (in test [1]; on mTor kinase) were 5.44 µM and 0.87 µM, respectively.

Turning to `Cc1cnccc1-c1cc(N2CCOCC2)cc(S(=O)(=O)c2ccccc2)c1` [Compound 12, 4-(3-(3-methylpyridin-4-yl)-5-(phenylsulfonyl)phenyl)morpholine], the “PI3Ka IC50” value on PI3Kα was 9.0 µM. Besides, the IC50 (in test [1]; on mTor kinase) was 100 µM in each case.

Take `CC(=O)N1CC(S(=O)(=O)c2cc(-c3cnc(N)nc3)cc(N3CCOCC3)c2)C1` [Compound 68, 1-(3-((3-(2-aminopyrimidin-5-yl)-5-morpholinophenyl)sulfonyl)azetidin-1-yl)ethan-1-one]: the “PI3Ka IC50” value at PI3Kα came out at 0.047 µM. Moreover, the IC50 was 4.66 µM in test [1] and 1.21 µM on mTor kinase.

In the case of `Nc1ncc(-c2cc(N3CCOCC3)cc(S(=O)(=O)[C@H]3CCOC3)c2)cn1` [Compound 53, (S)-5-(3-morpholino-5-((tetrahydrofuran-3-yl)sulfonyl)phenyl)pyrimidin-2-amine], at PI3Kα, the “PI3Ka IC50” value was determined as 0.11 µM. The IC50 turned out to be 1.65 µM in test [1] and 0.54 µM on mTor kinase.

With `Nc1ncc(-c2cc(N3CCOCC3)cc(S(=O)(=O)Cc3ccccc3F)c2)cn1` [Compound 50, 5-(3-((2-fluorobenzyl)sulfonyl)-5-morpholinophenyl)pyrimidin-2-amine], at PI3Kα, the “PI3Ka IC50” value was 0.28 µM. The IC50 is over 50 µM in test [1] and 2.98 µM on mTor kinase.

Turning to `Nc1ncc(-c2cc(OC3CN(C(=O)C4CC4)C3)cc(N3CCOCC3)n2)cn1` [Compound 129, (3-((2-(2-aminopyrimidin-5-yl)-6-morpholinopyridin-4-yl)oxy)azetidin-1-yl)(cyclopropyl)methanone], on PI3Kα, the “PI3Ka IC50” value amounted to 0.034 µM. Also, the IC50 turned out to be 3.46 µM in test [1] and 2.95 µM at mTor kinase.

In the case of `Nc1ncc(-c2cc(N3CCOCC3)cc(S(=O)(=O)CC3CCOCC3)c2)cn1` [Compound 39, 5-(3-morpholino-5-(((tetrahydro-2H-pyran-4-yl)methyl)sulfonyl)phenyl)pyrimidin-2-amine], on PI3Kα, the “PI3Ka IC50” value came to 0.79 µM. Besides, the IC50 in test [1] is 9.9 µM; on mTor kinase, 4.8 µM.

In the case of `O=S(=O)(Cc1ccccc1)c1cc(-c2cnc(NCCO)nc2)cc(N2CCOCC2)c1` [Compound 35, 2-((5-(3-(benzylsulfonyl)-5-morpholinophenyl)pyrimidin-2-yl)amino)ethan-1-ol], the “PI3Ka IC50” value on PI3Kα was 1.1 µM. For the same molecule, the values for the IC50 (in test [1]; at mTor kinase) were 23.5 µM and 12.2 µM, respectively.

As to `Nc1ncc(-c2cc(N3CCOCC3)cc(S(=O)(=O)C3CCC(F)(F)CC3)c2)cn1` [Compound 88, 5-(3-((4,4-difluorocyclohexyl)sulfonyl)-5-morpholinophenyl)pyrimidin-2-amine], the “PI3Ka IC50” value at PI3Kα came out at 0.53 µM. Moreover, the IC50 turned out to be 6.54 µM in test [1] and 2.46 µM on mTor kinase.

`CC(=O)Nc1ccc(S(=O)(=O)c2cc(-c3cnc(N)nc3)cc(N3CCOCC3)c2)cc1` [Compound 22, N-(4-((3-(2-aminopyrimidin-5-yl)-5-morpholinophenyl)sulfonyl)phenyl)acetamide]: the “PI3Ka IC50” value at PI3Kα was 2.8 µM. Moreover, the values for the IC50 (in test [1]; on mTor kinase) were 39 µM and 8.69 µM, respectively.

Turning to `Nc1ncc(-c2cc(S(=O)(=O)c3ccccc3)cc(N3CCOCC3)n2)cn1` [Compound 115, 5-(6-morpholino-4-(phenylsulfonyl)pyridin-2-yl)pyrimidin-2-amine], the “PI3Ka IC50” value at PI3Kα came out at 0.066 µM. In addition, the results for the IC50 (in test [1]; at mTor kinase) were 0.57 µM and 0.063 µM, respectively.

As for `Nc1ncc(-c2cc(N3CCOCC3)cc(S(=O)(=O)Cc3ccc(F)cc3F)c2)cn1` [Compound 26, 5-(3-((2,4-difluorobenzyl)sulfonyl)-5-morpholinophenyl)pyrimidin-2-amine], the “PI3Ka IC50” value at PI3Kα is 0.27 µM. Moreover, the half-maximal inhibitory concentration (IC50) in test [1] worked out at 6.2 µM; on mTor kinase it was 5.3 µM.

Regarding `COc1ccc(CS(=O)(=O)c2cc(-c3cnc(N)nc3)cc(N3CCOCC3)c2)cc1` [Compound 28, 5-(3-((4-methoxybenzyl)sulfonyl)-5-morpholinophenyl)pyrimidin-2-amine], the results for the IC50 (at PI3Kα (read-out: PI3Ka IC50); in test [1]; on mTor kinase) were 0.37 µM, 13 µM and 7.9 µM, respectively.

For the molecule `Nc1cc(F)c(-c2cc(N3CCOCC3)cc(S(=O)(=O)[C@@H]3CCOC3)c2)cn1` [Compound 106, (R)-4-fluoro-5-(3-morpholino-5-((tetrahydrofuran-3-yl)sulfonyl)phenyl)pyridin-2-amine], on PI3Kα, the “PI3Ka IC50” value amounted to 0.10 µM. Also, the IC50 in test [1] came out at 4.1 µM; at mTor kinase, 1.46 µM.

On to `Nc1ncc(-c2cc(N3CCOCC3)cc(S(=O)(=O)c3ccccc3)c2)cn1` [Compound 1, 5-(3-morpholino-5-(phenylsulfonyl)phenyl)pyrimidin-2-amine], for which, at PI3Kα, the “PI3Ka IC50” value was found to be 0.61 µM. Further, the IC50 was found to be 7.52 µM in test [1] and 2 µM on mTor kinase.

As to `CC(=O)Nc1ncc(-c2cc(N3CCOCC3)cc(S(=O)(=O)c3ccccc3)c2)cn1` [Compound 30, N-(5-(3-morpholino-5-(phenylsulfonyl)phenyl)pyrimidin-2-yl)acetamide], the “PI3Ka IC50” value on PI3Kα amounted to 3.1 µM. The IC50 in test [1] was found to be 18 µM; at mTor kinase, 10.9 µM.

`Cc1ccc(S(=O)(=O)c2cc(-c3cnc(N)nc3)cc(N3CCOCC3)c2)cc1` [Compound 21, 5-(3-morpholino-5-tosylphenyl)pyrimidin-2-amine]: on PI3Kα, the “PI3Ka IC50” value was found to be 2.1 µM. Moreover, the values for the IC50 (in test [1]; at mTor kinase) were 37 µM and 9.39 µM, respectively.

For the molecule `Nc1ncc(-c2cc(N3CCOCC3)cc(S(=O)(=O)Cc3ccc4[nH]ccc4c3)c2)cn1` [Compound 56, 5-(3-(((1H-indol-5-yl)methyl)sulfonyl)-5-morpholinophenyl)pyrimidin-2-amine], on PI3Kα, the “PI3Ka IC50” value stood at 0.26 µM. For the same molecule, the IC50 in test [1] stood at 19.8 µM; on mTor kinase, 6.15 µM.
